Data on three compounds can be found in PMC8605905 (Oxidative Medicine and Cellular Longevity, 2021).

Entries after “also recorded” stand apart in the source; their conditions may differ.

Common to all, as to type: cell-based, Human
For assay [1], the system named is ∆K280 tauRD-DsRed SH-SY5Y cells. Nature of the assay: High content analysis of neurite outgrowth in ΔK280 tauRD-DsRed cells. The conditions noted are these: inhibitor 10 μM on day 6, LM-021 10 μM. On the procedure: (§1) On day 1, Aβ-GFP or ∆K280 tauRD-DsRed SH-SY5Y cells were plated into 24-well plates (6 × 10^4/well) followed by addition of retinoic acid. On day 2, cells were treated with coumarin-chalcone derivatives (5 or 10 μM) and with doxycycline (5 or 2 μg/ml) to induce the expression of Aβ-GFP or ∆K280 tauRD-DsRed. On day 8, 4% paraformaldehyde, 0.1% Triton X-100, and 3% BSA were used to fix, permeabilize, and block cells, respectively. Subsequently, the cells were stained with TUBB3 (neuronal class III β-tubulin) primary antibody (1 : 1000; Covance, Princeton, NJ, USA) at 4°C overnight. Goat anti-rabbit Alexa Fluor 555 secondary antibody (1 : 1000; Thermo Fisher Scientific) was then added, followed by a 3 h incubation at room temperature. Following staining nuclei with 4′,-6-diamidino-2-phenylindole (DAPI) (0.1 μg/ml; Sigma-Aldrich), the neurons were imaged by using the HCA system and analysed by using the Neurite Outgrowth Application Module (MetaXpress; Molecular Devices).
(§2) To monitor the cAMP-mediated signal transduction pathway, CRE-GFP 293 cells in 6-well plates (1 × 10^6/well) were pretreated with kinase inhibitor H-89 (LC Laboratories, Woburn, MA, USA), KN-62 (Cayman Chemical, Ann Arbor, MI, USA), U0126 (LC Laboratories), or wortmannin (LC Laboratories) (10 μM) for 4 h before forskolin or LM-021 (10 μM) addition for 5 h. GFP fluorescence/protein and total/phosphorylated PKA, CaMKII, ERK, PI3K, and CREB levels were examined. In addition, Aβ-GFP or ∆K280 tauRD-DsRed SH-SY5Y cells were treated with retinoic acid (10 μM) on day 1, followed by the addition of LM-021 (5 or 10 μM) and doxycycline (5 or 2 μg/ml) on day 2, as described. Kinase inhibitors (10 μM) were added on day 6. On day 8, the cells were collected for protein expression analysis of BDNF, BCL2 (BCL2 apoptosis regulator), and BAX (BCL2 associated X, apoptosis regulator), and total/phosphorylated PKA, CaMKII, ERK, PI3K, and CREB. Also, cells were stained with DAPI and assessed for neurite outgrowth as described above.

The test system is the same in assay [2]. Nature of the assay: Western blot in ΔK280 tauRD-DsRed SH-SY5Y cells. The settings on record: inhibitor 10 μM on day 6, LM-021 10 μM. As for the experimental part: as §2
(§3) Total proteins from CRE-GFP 293 and Aβ-GFP, ∆K280 tauRD-DsRed SH-SY5Y cells were extracted using lysis buffer (50 mM Tris-HCl (pH 8.0), 150 mM NaCl, 1 mM EDTA (pH 8.0), 1 mM EGTA (pH 8.0), 0.1% SDS, 0.5% sodium deoxycholate, 1% Triton X-100) containing phosphatase and protease inhibitor cocktails (Sigma-Aldrich). Protein concentrations were measured using a protein assay kit (Bio-Rad, Hercules, CA, USA), and 20 μg of proteins was separated with 10% SDS-PAGE and blotted onto polyvinylidene difluoride (PVDF) membranes (Sigma-Aldrich). After blocking, the membrane blot was incubated with primary antibody against GFP (1 : 500; Santa Cruz Biotechnology, Santa Cruz, CA, USA), PKA (1 : 1000; R&D Systems, Minneapolis, MN, USA), p-PKA (T197) (1 : 1000; Cell Signaling, Danvers, MA, USA), ERK (1 : 500; Cell Signaling), p-ERK (T202/Y204) (1 : 500; Cell Signaling), CaMKII (1 : 1000; Santa Cruz Biotechnology), p-CaMKII (T286) (1 : 1000; Cell Signaling), CREB (1 : 1000; Santa Cruz Biotechnology), p-CREB (S133) (1 : 1000; Millipore, Billerica, MA, USA), BDNF (1 : 500; Santa Cruz Biotechnology), BCL2 (1 : 500; BioVision), BAX (1 : 500; BioVision), GAPDH (glyceraldehyde-3-phosphate dehydrogenase, as a loading control) (1 : 1000; MDBio, Taipei, Taiwan), or β-tubulin (1 : 1000, Sigma-Aldrich, as a loading control). The immune complexes were visualized using horseradish peroxidase-conjugated goat anti-mouse or goat anti-rabbit IgG antibody (1 : 5000, GeneTex, Irvine, CA, USA) and a chemiluminescent substrate (Millipore).
(A western blot detects proteins with antibodies after separation by electrophoresis.)

The subject of assay [3] is Aβ-GFP SH-SY5Y cells. Nature of the assay: Western blot in Aβ-GFP SH-SY5Y cells. The conditions noted are these: inhibitor 10 μM on day 6, LM-021 5 μM. As for the experimental part: as §2, §3
The test system of assay [4] is Aβ-GFP SH-SY5Y cells. Nature of the assay: High content analysis of neurite outgrowth in Aβ-GFP cells. The conditions noted are these: inhibitor 10 μM on day 6, LM-021 5 μM. On the procedure:
as §1, §2

For assay [5], the system named is CRE-GFP 293 cells. Nature of the assay: CRE-GFP 293 reporter cell assay (flow cytometry). The conditions noted are these: for Effect of kinase inhibitor on LM-021-activated GFP levels: inhibitor 10 μM 4 h before LM-021 10 μM, presence or absence of Ca2+ ionophore.
From the text: Using the pCRE-MetLuc2-Reporter plasmid (Clontech, Mountain View, CA, USA) as a template, the DNA fragment containing the cAMP response element (CRE) motifs and TATA-like promoter (PTAL) flanked by MluI and AgeI restriction sites was amplified by PCR using sense ([…], MluI site underlined) and antisense ([…], AgeI site underlined) primers. The amplified CRE-PTAL promoter fragment was cloned into pGEM-T Easy (Promega, Madison, WI, USA) and sequenced. The CRE-PTAL-containing MluI/AgeI fragment and GFP-containing AgeI/NotI fragment (from pEGFP-N1; Clontech) were subcloned into MluI- and NotI-digested pcDNA5/FRT/TO (Novagen, Madison, WI, USA). The resulting construct with CRE-PTAL-driving GFP was used to establish 293 GFP reporter cells by targeting insertion into Flp-In-293 cells according to the supplier's instructions (Invitrogen). The cells were grown in a medium containing 5 μg/ml blasticidin and 100 μg/ml hygromycin.
On day 1, CRE-GFP 293 cells were seeded into 48-well plates (5 × 10^4/well). After 24 h, cells were treated with Ca^2+ ionophore (2 μM) (Sigma-Aldrich) for 0–24 h. Cell viability was measured using 3,(4,5-dimethylthiazol-2-yl)-2,5-diphenyltetrazolium bromide (MTT) assay (Sigma-Aldrich). The absorbance of the insoluble purple formazan dye was quantified at 570 nm on a μQuant microplate spectrophotometer (Bio-Tek). In addition, the cells were treated with the Ca^2+ ionophore A23187 (0.5–10 μM) (Sigma-Aldrich) for 5 h, followed by analysis of GFP fluorescence by flow cytometry (Becton–Dickinson, Franklin Lakes, NJ, USA) with excitation/emission wavelengths at 488/507 nm. To monitor CREB activation, cells were treated with forskolin or coumarin-chalcone derivatives (5–10 μM) in the presence or absence of Ca^2+ ionophore (2 μM) for 5 h, and GFP fluorescence was analysed.
as §2
(A flow cytometer gives signals particle by particle.)

Assay [6] concerns CRE-GFP 293 cells. Nature of the assay: Western blot in CRE-GFP 293 cells. The settings on record: inhibitor 10 μM, LM-021 10 μM, without Ca2+ ionophore, immunoblot. As for the experimental part: as §2
Total proteins from CRE-GFP 293 and Aβ-GFP, ∆K280 tauRD-DsRed SH-SY5Y cells were extracted using lysis buffer (50 mM Tris-HCl (pH 8.0), 150 mM NaCl, 1 mM EDTA (pH 8.0), 1 mM EGTA (pH 8.0), 0.1% SDS, 0.5% sodium deoxycholate, 1% Triton X-100) containing phosphatase and protease inhibitor cocktails (Sigma-Aldrich). Protein concentrations were measured using a protein assay kit (Bio-Rad, Hercules, CA, USA), and 20 μg of proteins was separated with 10% SDS-PAGE and blotted onto polyvinylidene difluoride (PVDF) membranes (Sigma-Aldrich). […]

On to `N#CC(=C(/N)Sc1ccccc1N)/C(C#N)=C(/N)Sc1ccccc1N` [U0126], for which, in assay [1], the “Effect of kinase inhibitor on LM-021-ameliorated neurite length and branch length” value is reported as “reversed these effects”. In assay [2], the “Effect of kinase inhibitor on LM-021-upregulated kinase phosphorylation” value was “attenuated the rescue of p-ERK”; the “Effect of kinase inhibitor on LM-021 upregulation of p-CREB, pro-BDNF, m-BDNF, and BCL2” value was “attenuated the upregulation”. In the assay with Aβ-GFP SH-SY5Y cells [3], the “Effect of kinase inhibitor on LM-021-upregulated kinase phosphorylation” value is recorded as “normalized p-ERK”; the “Effect of kinase inhibitor on LM-021 increase in p-CREB, pro-BDNF, m-BDNF, and BCL2” value is on record as “attenuated the increase”. Further, the “Effect of kinase inhibitor on LM-021-improved neurite length, processes, and branches” value (shortened to “Effect of kinase inhibitor … and branches”) with Aβ-GFP SH-SY5Y cells [4] is “counteracted these improvements”. Also, in the assay on CRE-GFP 293 cells [5], the “Effect of kinase inhibitor on LM-021-activated GFP levels” value is reported as “attenuated the GFP levels”. The “Effect of kinase inhibitor on increased p-CREB and GFP protein levels” value in the assay with CRE-GFP 293 cells [6] was “significantly reduced”.
As to `CN([C@@H](Cc1ccc(OS(=O)(=O)c2cccc3cnccc23)cc1)C(=O)N1CCN(c2ccccc2)CC1)S(=O)(=O)c1cccc2cnccc12` [KN-62], the “Effect of kinase inhibitor on LM-021-ameliorated neurite length and branch length” value in assay [1] is reported as “reversed these effects”. For the same compound, in assay [2], the “Effect of kinase inhibitor on LM-021-upregulated kinase phosphorylation” value is on record as “diminished the increase of p-CaMKII”; the “Effect of kinase inhibitor on LM-021 upregulation of p-CREB, pro-BDNF, m-BDNF, and BCL2” value is on record as “attenuated the upregulation”. In the assay on Aβ-GFP SH-SY5Y cells [3], the “Effect of kinase inhibitor on LM-021-upregulated kinase phosphorylation” value is listed as “mitigated the upregulation of p-CaMKII; also recorded: normalized p-ERK”; the “Effect of kinase inhibitor on LM-021 increase in p-CREB, pro-BDNF, m-BDNF, and BCL2” value is recorded as “attenuated the increase”. Further, the “Effect of kinase inhibitor … and branches” value in the assay on Aβ-GFP SH-SY5Y cells [4] is reported as “counteracted these improvements”. Moreover, the “Effect of kinase inhibitor on LM-021-activated GFP levels” value in the assay with CRE-GFP 293 cells [5] was “attenuated the GFP levels”. For the same compound, the “Effect of kinase inhibitor on increased p-CREB and GFP protein levels” value with CRE-GFP 293 cells [6] is “significantly reduced”.
On to `O=S(=O)(NCCNC/C=C/c1ccc(Br)cc1)c1cccc2cnccc12` [H-89], for which the “Effect of kinase inhibitor on LM-021-ameliorated neurite length and branch length” value in assay [1] is “reversed these effects”. Moreover, in assay [2], the “Effect of kinase inhibitor on LM-021-upregulated kinase phosphorylation” value is “reduced the upregulation of p-PKA”; the “Effect of kinase inhibitor on LM-021 upregulation of p-CREB, pro-BDNF, m-BDNF, and BCL2” value is given as “attenuated the upregulation”. In the assay on Aβ-GFP SH-SY5Y cells [3], the “Effect of kinase inhibitor on LM-021-upregulated kinase phosphorylation” value is given as “mitigated the increase of p-PKA”; the “Effect of kinase inhibitor on LM-021 increase in p-CREB, pro-BDNF, m-BDNF, and BCL2” value is listed as “attenuated the increase”. Also, the “Effect of kinase inhibitor … and branches” value in the assay on Aβ-GFP SH-SY5Y cells [4] is “counteracted these improvements”. Moreover, in the assay on CRE-GFP 293 cells [5], the “Effect of kinase inhibitor on LM-021-activated GFP levels” value is on record as “attenuated the GFP levels”. Besides, in the assay with CRE-GFP 293 cells [5] (inhibitor 10 μM 4 h before forskolin 10 μM, presence of Ca2+ ionophore), the “Effect of kinase inhibitor on forskolin-activated GFP level” value is listed as “attenuated the GFP level”. In addition, the “Effect of kinase inhibitor on increased p-CREB and GFP protein levels” value in the assay on CRE-GFP 293 cells [6] is listed as “significantly reduced”.
